According to patent US10995091B2 (Proximagen, LLC, priority 2010, dated 2021):

Key:
[1] = tested on: HIV-1IIIB (CXCR4-tropic) virus; assay: CXCR4-tropic HIV-1 attachment assay in MAGI-CCR5 cells (β-galactosidase reporter); format: cell-based; details: Human immunodeficiency virus 1, MAGI-CCR5, read-out: IC50, inhibition of attachment of CXCR4-tropic HIV-1
Method: Example 30 was tested in an HIV attachment assay, which detects compounds that block HIV-1IIIB (CXCR4-tropic) virus attachment to cells.
The CXCR4-tropic HIV-1 attachment assay uses MAGI-CCR5 cells that naturally express CXCR4 which were engineered to express high levels of CD4 and CCR5 and to contain one copy of the HIV-1 LTR promoter driving expression of the β-galactosidase gene upon HIV-1 Tat transactivation. Cells are incubated with Example 30 and the CXCR4-tropic virus HIV-1IIIB for 3 hours before washing to remove drug and unbound virus. Fresh media is added and the plates are incubated for 48 hours after which antiviral efficacy is measured as the inhibition of β-galactosidase reporter expression and cytotoxicity is monitored by MTS staining.

HIV-1IIIB (CXCR4-tropic) = assay: HIV anti-viral assay in MAGI-CCR5 cells (β-galactosidase reporter); format: cell-based; details: Human immunodeficiency virus 1, 48 hours with compound and virus, read-out: IC50, HIV-1 antiviral activity
Method: Example 30 was also tested in an HIV antiviral assay that detects compounds that block HIV-1IIIB (CXCR4-tropic) replication via targets in the viral life cycle. The anti-viral assay uses MAGI-CCR5 cells that naturally express CXCR4 which were engineered to express high levels of CD4 and CCR5 and to contain one copy of the HIV-1 LTR promoter driving expression of the β-galactosidase gene upon HIV 1 Tat transactivation. Cells are incubated with Example 30 and the CXCR4-tropic virus HIV-1IIIB for 48 hours after which antiviral efficacy is measured as the inhibition of β-galactosidase reporter expression and cytotoxicity is monitored by MTS staining.

[2] = tested on: circulating white blood cells (WBC); assay: In vivo mobilization of white blood cells (WBC count in peripheral blood); details: C57BL/6 mice
Method: (§1) The study investigated the ability of Example 30 alone and in combination with G-CSF to induce in vivo mobilization of white blood cells in C57BL/6 mice, as well as hematopoietic progenitors from bone marrow to peripheral blood as assessed by the evaluation of the frequency of colony forming cell colonies (CFC). Peripheral blood samples from each test group were collected 1 hour post injection. The white blood cell count (WBC) was determined from the peripheral blood collected for each individual mouse. Clonogenic progenitors of the multipotential (CFU-GEMM) lineages were assessed. Peripheral blood cells were added to MethoCult® 3434 in triplicate cultures for plating (0.5-3×10^5 cells/dish). Cultures were incubated for 8 days at 37° C., 5% CO2 in humidified incubators. CFU-GEMM colony number was enumerated microscopically using an inverted microscope from appropriately plated culture dishes.

[3] = molecular target: T1, Human CXCR4 transfected HEK293 cells (Homo sapiens, UniProt P61073); assay: CXCR4 functional calcium assay (calcium flux FLIPR, antagonism of SDF1 response); format: cell-based; details: CXCR4 functional activity, antagonism of SDF1 (EC50 concentration), read-out: CXCR4 fKi
T1 construct: expressed in transfected cells; host or cells: HEK293
Procedure, shortened: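 HEK293 cells stably transfected with human CXCR4 were loaded with 2 μM Fluo-4 AM in HBSS containing 2.5 mM probenecid, 0.1% BSA and 10 mM HEPES at pH 7.4 and 37° C. Compound was added first, then SDF1 at its EC50 concentration, and intracellular calcium fluorescence was followed on a FLIPR. Antagonist dose-response curves were fitted.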

[4] = tested on: multipotential mixed hematopoietic progenitors (CFU-GEMM); assay: In vivo mobilization of hematopoietic progenitors, colony forming cell assay (CFU-GEMM) from peripheral blood; details: C57BL/6 mice, one hour after treatment, compared to G-CSF treatment alone
Method: as §1

[5] = tested on: haematopoietic stem cells; details: donors or patients; background statement; cited from earlier work

T1 sequence (P61073 whole entry): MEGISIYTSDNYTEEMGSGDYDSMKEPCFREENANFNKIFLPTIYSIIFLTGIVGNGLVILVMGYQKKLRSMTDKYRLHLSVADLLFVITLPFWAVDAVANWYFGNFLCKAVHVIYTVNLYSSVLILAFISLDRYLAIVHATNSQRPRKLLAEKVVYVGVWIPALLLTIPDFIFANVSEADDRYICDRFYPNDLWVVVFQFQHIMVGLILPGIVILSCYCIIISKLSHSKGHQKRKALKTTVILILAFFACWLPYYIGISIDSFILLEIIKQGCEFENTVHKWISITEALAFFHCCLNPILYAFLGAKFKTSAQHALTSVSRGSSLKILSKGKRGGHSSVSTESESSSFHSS

Compound | Ki [3] [nM] | other results
CC(C)N1CCC(N2CCCN(c3cccc(C(=O)Nc4ccncc4)n3)CC2)CC1 [Example 30, 6-{4-[1-(Propan-2-yl)piperidin-4-yl]-1,4-diazepan-1-yl}-N-(pyridin-4-yl)pyridine-2-carboxamide] | < 20 | IC50 [1]: 40 nM; IC50 (HIV-1IIIB (CXCR4-tropic)): 30 nM; circulating white blood cells (WBC) ([2]; 1 hour after treatment, compared to vehicle control group): significant increase; circulating white blood cells (WBC), in combination with G-CSF ([2]; after 1 hour, in combination with G-CSF, compared to G-CSF alone): significant increase; multipotential mixed hematopoietic progenitors (CFU-GEMM/ml), in combination with G-CSF [4]: significant increase
c1cc(CN2CCCNCCNCCCNCC2)ccc1CN1CCCNCCNCCCNCC1 [Mozobil] | – | success rate of stem cell mobilisation (sufficient yield) [5]: ~90%
CC(C)N1CCCC(NCCNc2cccc(C(=O)Nc3ccncc3)n2)CC1 (stereo not drawn) [Example 234, 6-[(2-{[1-(Propan-2-yl)azepan-4-yl]amino}ethyl)amino]-N-(pyridin-4-yl)pyridine-2-carboxamide] | 100 to 500 | –
CC(C)N1CCN(C)[C@H](CN2CCCN(c3cccc(C(=O)Nc4ccncc4)n3)CC2)C1 [Example 202, 6-(4-{[(2R)-1-Methyl-4-(propan-2-yl)piperazin-2-yl]methyl}-1,4-diazepan-1-yl)-N-(pyridin-4-yl)pyridine-2-carboxamide] | 500 to 1000 | –
O=C(NCC1CC1)c1cccc(N2CCCN(C3CCN(Cc4ccccc4Cl)CC3)CC2)n1 [Example 132, 6-(4-{1-[(2-Chlorophenyl)methyl]piperidin-4-yl}-1,4-diazepan-1-yl)-N-(cyclopropylmethyl)pyridine-2-carboxamide] | 20 to 100 | –
CC(C)N1CCC(N2CCCN(c3cccc(C(=O)NC4CC4)n3)CC2)CC1 [Example 11, N-Cyclopropyl-6-{4-[1-(propan-2-yl)piperidin-4-yl]-1,4-diazepan-1-yl}pyridine-2-carboxamide] | 100 to 500 | –
CC(C)N1CCC(N2CCCN(c3cccc(C(=O)Nc4ccccc4O)n3)CC2)CC1 [Example 24, N-(2-Hydroxyphenyl)-6-{4-[1-(propan-2-yl)piperidin-4-yl]-1,4-diazepan-1-yl}pyridine-2-carboxamide] | 20 to 100 | –
